Measurements taken from ChEMBL document CHEMBL1127004, “Structure-based design and pharmacological properties of potent selective and systemically active CCK-B peptidomimetics” (Bioorg Med Chem Lett, 1993).
pKi: −log10 of the molar value. Non-standard residues stand in square brackets, D forms with d. Residues, ends and D or L forms follow the SMILES beside them. *: point of attachment. 1Nal = N[C@@H](Cc1cccc2ccccc12)C(=O)O; Phg = N[C@H](C(=O)O)c1ccccc1; Boc = CC(C)(C)OC(=O)*

Molecular target: T1, Cholecystokinin receptor type A (Cavia porcellus, UniProt Q63931)
T1 sequence (Q63931 whole entry): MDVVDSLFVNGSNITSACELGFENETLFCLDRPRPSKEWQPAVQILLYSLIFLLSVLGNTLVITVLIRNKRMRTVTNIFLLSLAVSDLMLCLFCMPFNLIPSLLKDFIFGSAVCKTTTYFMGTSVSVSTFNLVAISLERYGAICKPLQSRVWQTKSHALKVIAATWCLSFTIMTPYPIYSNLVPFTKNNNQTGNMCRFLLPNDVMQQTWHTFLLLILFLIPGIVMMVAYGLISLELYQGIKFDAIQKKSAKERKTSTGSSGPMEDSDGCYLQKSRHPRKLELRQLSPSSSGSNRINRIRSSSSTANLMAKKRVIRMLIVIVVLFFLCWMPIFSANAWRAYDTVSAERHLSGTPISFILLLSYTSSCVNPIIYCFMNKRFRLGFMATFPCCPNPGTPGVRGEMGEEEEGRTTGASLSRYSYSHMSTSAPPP
Assay: Tested for the inhibition of [3H]pCCK-8 binding to Cholecystokinin type A receptor in pancreatic membranes of guinea-pig
Type: cell membranes

Compound | pKi
CC(C)(C)OC(=O)N[C@@H](Cc1c[nH]c2ccccc12)C(=O)N[C@H](C(=O)N[C@@H](CC(=O)O)C(=O)N[C@@H](Cc1cccc2ccccc12)C(N)=O)c1ccccc1 (Boc-W[Phg]D[1Nal]-NH2) | 5.96
CN(C)C(=O)[C@H](Cc1cccc2ccccc12)NC(=O)[C@H](CC(=O)O)NC(=O)[C@@H](NC(=O)[C@H](Cc1c[nH]c2ccccc12)NC(=O)OC(C)(C)C)c1ccccc1 (Boc-W[Phg]D[1Nal]-NMe2) | 6.00
CCCC[C@@H](NC(=O)CC(=O)N[C@@H](Cc1c[nH]c2ccccc12)C(=O)N(C)[C@@H](CCCC)C(=O)N[C@@H](CC(=O)O)C(=O)N[C@@H](Cc1ccccc1)C(N)=O)NC(=O)[C@H](Cc1ccc(CS(=O)(=O)O)cc1)NC(=O)OC(C)(C)C | 5.96
CC(C)(C)OC(=O)N[C@@H](Cc1c[nH]c2ccccc12)C(=O)N[C@@H](Cc1ccccc1)C(=O)N[C@@H](CC(=O)O)C(=O)N[C@@H](Cc1cccc2ccccc12)C(N)=O (Boc-WFD[1Nal]-NH2) | 5.62
